Here are results for 12 molecules from patent publication US20240294551A1 (AMGEN INC., priority 2022, published 2024).

In experiment [1] the target is His-tagged KRAS G12D protein (Homo sapiens (Human), UniProt P01116, G12D). In words: KRAS G12D TR-FRET Assay. The conditions noted are these: read-out: KRAS G12D Binding IC50. The class given is binding. Summed up: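 Each incubation ran at room temperature: enzyme with compound for 30 minutes, peptide for one hour, and detection reagents (0.4 nM europium anti-6×His, 5 nM streptavidin-d2) for one hour more. Protein and peptide stocks were each diluted to 20 nM before addition.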
Sequence of His-tagged KRAS G12D protein (P01116 other isoform, or with tags, fused parts or gaps G12D): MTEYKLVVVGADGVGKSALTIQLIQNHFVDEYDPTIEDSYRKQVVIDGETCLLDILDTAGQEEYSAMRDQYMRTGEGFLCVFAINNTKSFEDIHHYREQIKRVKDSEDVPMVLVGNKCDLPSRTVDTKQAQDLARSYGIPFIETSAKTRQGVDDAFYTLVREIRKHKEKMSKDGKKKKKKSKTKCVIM

A further experiment deals with AsPC-1 cells. In words: AsPC-1 CTG Assay (CellTiter-Glo cell viability). It counts as cell-based, human. As to conditions: AsPC-1, 72 h, first value of the cell, read-out: G12D/C/V Cell Proliferation CTG (72 h) AsPC-1. Summed up: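 IC50 values derive from 4-parameter logistic fits of CellTiter-Glo luminescence, expressed relative to DMSO. Compound dilution series were applied to overnight-seeded AsPC-1 or SW620 cells (RPMI 1640, 10% FBS) for 72 h at 37 °C, 5% CO2.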
(In general: In ATP-based viability assays light output follows the ATP content of the culture.)

The target in experiment [2] is GDP-bound KRAS protein (aa 1-169), containing both G12D and C118A amino acid substitutions (Homo sapiens (Human), UniProt P01116, C118A/G12D). Put plainly: KRAS G12D Coupled Nucleotide Exchange Assay. As to conditions: read-out: KRAS G12D Coupled Exchange IC50. It counts as biochemical.
Sequence of GDP-bound KRAS protein (aa 1-169), containing both G12D and C118A amino acid substitutions (P01116 other isoform, or with tags, fused parts or gaps G12D/C118A): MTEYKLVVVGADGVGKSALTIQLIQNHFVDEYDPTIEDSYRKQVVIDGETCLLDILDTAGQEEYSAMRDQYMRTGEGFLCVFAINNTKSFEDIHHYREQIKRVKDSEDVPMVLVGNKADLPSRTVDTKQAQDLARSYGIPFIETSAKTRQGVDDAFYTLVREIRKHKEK
Another experiment deals with MIA PaCa-2 cells. Put plainly: MIA PaCa-2 CTG Assay (CellTiter-Glo cell viability). It counts as cell-based, human. As to conditions: Homo sapiens; Mia PaCa-2, 72 h; second value of the cell; read-out: G12D/C/V Cell Proliferation CTG (72 h) Mia PaCa-2. On the procedure:
MIA PaCa-2 CTG Assay Protocol
MIA PaCa-2 (human pancreatic carcinoma; ATCC CRL-1420) cells were cultured in RPMI 1640 medium containing 10% fetal bovine serum and 1× penicillin/streptomycin/L-glutamine. Cells were seeded in 384-well plates at a density of 1.67E+04 cells/mL and incubated at 37° C., 5% CO2, overnight. Serially-diluted compound or DMSO was added to the cells, and plates were incubated at 37° C., 5% CO2 for 72 h. Cell viability was measured using a CellTiter-Glo® Luminescent Cell Viability Assay kit (Promega) according to the manufacturer's protocol. The luminescence signal of treated samples was normalized to DMSO control, and data were analyzed using a 4-parameter logistic model to calculate IC50 values.

Experiment [3] relates to Phosphorylation of ERK1/2 in AsPC-1 cells. In words: Phospho-ERK1/2 MSD Assay. The class given is cell-based, human. As to conditions: read-out: 2 h p-ERK (AsPC-1 cells), IC50. The method, boiled down:
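Read-out: MSD electrochemiluminescent detection of phosphorylated ERK1/2 in whole-cell lysates, fitted to a 4-parameter logistic curve for IC50. Prior to lysis, AsPC-1 cells (25,000 per well) received a 2 h compound dose-response at 37 °C.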

Where a name gives a salt, the structure may show the parent alone. Read-outs that look alike come from different tables or passages of the source.

With `C[C@@]12CCCCN(C1)c1nc(OC[C@@]34CCCN3C[C@H](F)C4)nc3c(F)c(ncc13)-c1c(c(Cl)cc3[nH]ncc13)CCC[C@H](F)C(=O)N2` (mixture of isomers) [Example 281, (23RS,26R)-18-chloro-23,32-difluoro-4-(((2R,7aS)-2-fluorotetrahydro-1H-pyrrolo[1,2-a]pyrrol-7a(5H)-yl)methoxy)-26-methyl-1,3,5,9,14,15,25-heptaazahexacyclo[24.4.1.1~6,10~.0~2,7~.0~11,19~.0~12,16~]dotriaconta-2,4,6,8,10(32),11,13,16,18-nonaen-24-one], the IC50 stood at 5 nM in experiment [1]; 104 nM with AsPC-1 cells (Homo sapiens, ASPC1, 72 h); 2 nM in experiment [2]; 90 nM with MIA PaCa-2 cells; 7.9 nM in experiment [3] (Homo sapiens, ASPC1, 2 h).
Turning to `CO[C@@H]1C[C@@H](COc2nc3c4cnc(c(F)c4n2)-c2c(c(Cl)cc4[nH]ncc24)CCOC(=O)OC2CC4(CCCN3C4)C2)N(C)C1` (mixture of isomers) [Example 307], the IC50 was 4 nM in experiment [1]; 134 nM in the experiment with AsPC-1 cells (Homo sapiens, ASPC1, 72 h); 2 nM in experiment [2]; 62 nM with MIA PaCa-2 cells; 12 nM in experiment [3] (Homo sapiens, ASPC1, 2 h).
On the same counts, the results for `O=C1OC/C=C\c2c(Cl)cc3[nH]ncc3c2-c2ncc3c(nc(OC[C@@]45CCCN4C[C@H](F)C5)nc3c2F)N2CCC[C@H](C2)O1` (single isomer, unassigned) [Example 122] are 5 nM, 250 nM, 3 nM, 100 nM and 8 nM.
Regarding `Cc1cc2[nH]ncc2c2c1CCCC(F)C(=O)N[C@@H]1CCCCN(C1)c1nc(OC[C@@]34CCCN3C[C@H](F)C4)nc3c(F)c-2ncc13` (single isomer, unassigned) [Example 160], the IC50 was determined as 4 nM in experiment [1]; 587 nM in the experiment on AsPC-1 cells (Homo sapiens, ASPC1, 72 h); 3 nM in experiment [2]; 420 nM in the experiment with MIA PaCa-2 cells; 71.8 nM in experiment [3] (2 h).
`Cc1cc2[nH]ncc2c2c1[C@H]1C[C@H]1CCOC[C@H]1CN(CCO1)c1nc(OC[C@@]34CCCN3C[C@H](F)C4)nc3c(F)c-2ncc13` (single isomer, unassigned) [Example 226]: the IC50 is 7 nM in experiment [1]; 412 nM with AsPC-1 cells (Homo sapiens, ASPC1, 72 h); 5 nM in experiment [2]; 130 nM in the experiment with MIA PaCa-2 cells; 77.8 nM in experiment [3] (Homo sapiens, ASPC1, 2 h).
The matching figures for `Fc1c2ncc3c(nc(OC[C@@]45CCCN4C[C@H](F)C5)nc13)N1CCO[C@]3(C1)C[C@@H](C3)OCCCCc1c(Cl)cc3[nH]ncc3c1-2` (single isomer, unassigned) [Example 261]: 6 nM, 270 nM, 5 nM, 28 nM and 40.2 nM.
`O=C1CC/C=C\c2c(Cl)cc3[nH]ncc3c2-c2ncc3c(nc(OC[C@@]45CCCN4C[C@H](F)C5)nc3c2F)N2CCCC(C2)O1` (stereo in doubt) [Example 35, (11Z,17S)-9-Chloro-30-fluoro-24-(((2R,7aS)-2-fluorotetrahydro-1H-pyrrolo[1,2-a]pyrrol-7a(5H)-yl)methoxy)-16-oxa-5,6,21,23,25,29-hexaazahexacyclo[24.3.1.1˜17,21˜.0˜2,10˜.0˜3,7˜.0˜22,27˜]hentriaconta-1(30),2,4,7,9,11,22,24,26,28-decaen-15-one bis(2,2,2-trifluoroacetate)]: the IC50 was 1 nM in experiment [1]; 277 nM with AsPC-1 cells (Homo sapiens, ASPC1); 1 nM in experiment [2]; 90 nM in the experiment with MIA PaCa-2 cells; 19 nM in experiment [3] (Homo sapiens, ASPC1, 2 h).
For `C[C@@]12CCCN(C1)c1nc(OC[C@@]34CCCN3C[C@H](F)C4)nc3c(F)c(ncc13)-c1cc(O)cc3cccc(c13)CCCC(=O)N2` [Example 3, (15R)-31-Fluoro-8-(((2R,7aS)-2-fluorotetrahydro-1H-pyrrolo[1,2-a]pyrrol-7a(5H)-yl)methoxy)-27-hydroxy-15-methyl-3,7,9,11,16-pentaazahexacyclo[19.7.1.1˜2,6˜.1˜11,15˜.0˜5,10˜.0˜25,29˜]hentriaconta-1(28),2(31),3,5,7,9,21,23,25(29),26-decaen-17-one bis(2,2,2-trifluoroacetate)], the IC50 in experiment [1] was 1 nM; in the experiment on AsPC-1 cells (Homo sapiens, ASPC1, 72 h), 285 nM; in experiment [2], 0.1 nM; in the experiment on MIA PaCa-2 cells it was 75 nM; in experiment [3] (Homo sapiens, ASPC1, 2 h), 23 nM.
With `CN1C[C@H](F)C[C@H]1COc1nc2c3cnc(c(F)c3n1)-c1cc(O)cc3ccc(F)c(c13)CCCC(=O)N[C@]1(C)CCCN2C1` [Example 5, (15R)-22,31-Difluoro-8-(((2S,4R)-4-fluoro-1-methyl-2-pyrrolidinyl)methoxy)-27-hydroxy-15-methyl-3,7,9,11,16-pentaazahexacyclo[19.7.1.1˜2,6˜.1˜11,15˜.0˜5,10˜.0˜25,29˜]hentriaconta-1(28),2(31),3,5,7,9,21,23,25(29),26-decaen-17-one bis(2,2,2-trifluoroacetate)], the IC50 in experiment [1] was found to be 1 nM; in the experiment with AsPC-1 cells (Homo sapiens, ASPC1, 72 h) it was 471 nM; in experiment [2] it was 1 nM; in the experiment with MIA PaCa-2 cells, 62 nM; in experiment [3] (Homo sapiens, ASPC1, 2 h), 23 nM.
Regarding `C[C@@]12CCN(C1)c1nc(OC[C@@]34CCCN3C[C@H](F)C4)nc3c(F)c(ncc13)-c1cc(O)cc3ccc(F)c(c13)CCCC(=O)N2` [Example 10, (14R)-21,30-Difluoro-8-(((2R,7aS)-2-fluorotetrahydro-1H-pyrrolo[1,2-a]pyrrol-7a(5H)-yl)methoxy)-26-hydroxy-14-methyl-3,7,9,11,15-pentaazahexacyclo[18.7.1.1˜2,6˜.1˜11,14˜.0˜5,10˜.0˜24,28˜]triaconta-1(27),2(30),3,5,7,9,20,22,24(28),25-decaen-16-one 2,2,2-trifluoroacetate salt], the IC50 was 4 nM in experiment [1]; 574 nM in the experiment with AsPC-1 cells (Homo sapiens, ASPC1, 72 h); 2 nM in experiment [2]; 157 nM with MIA PaCa-2 cells; 84 nM in experiment [3] (Homo sapiens, ASPC1, 2 h).
On the same counts, the results for `CN(C)CC1(COc2nc3c4cnc(c(F)c4n2)-c2cc(O)cc4ccc(F)c(c24)CCCC(=O)N[C@]2(C)CCCN3C2)CC1` [Example 22, (15R)-8-((1-((Dimethylamino)methyl)cyclopropyl)methoxy)-22,31-difluoro-27-hydroxy-15-methyl-3,7,9,11,16-pentaazahexacyclo[19.7.1.1˜2,6˜.1˜11,15˜.0˜5,10˜.0˜25,29˜]hentriaconta-1(28),2(31),3,5,7,9,21,23,25(29),26-decaen-17-one bis(2,2,2-trifluoroacetate)] are 3 nM, 108 nM, 1 nM, 10 nM and 5 nM.
`Fc1c2ncc3c(nc(OC[C@@]45CCCN4C[C@H](F)C5)nc13)N1CCC[C@H](C1)c1coc(n1)CCCc1c(Cl)cc3[nH]ncc3c1-2` [Example 246, (18R)-9-chloro-31-fluoro-25-(((2R,7aS)-2-fluorotetrahydro-1H-pyrrolo[1,2-a]pyrrol-7a(5H)-yl)methoxy)-15-oxa-5,6,22,24,26,30,33-heptaazaheptacyclo[25.3.1.1~14,17~.1~18,22~.0~2,10~.0~3,7~.0~23,28~]tritriaconta-1(31),2,4,7,9,14(33),16,23,25,27,29-undecaene]: the IC50 turned out to be 112 nM with AsPC-1 cells, 82 nM with MIA PaCa-2 cells and 10.1 nM in experiment [3] (2 h).
